Test results from publication PMC11157491, “Novel Alaninamide Derivatives with Drug-like Potential for Development as Antiseizure and Antinociceptive Therapies—In Vitro and In Vivo Characterization” (ACS Chemical Neuroscience, 2024).

Experiments:
mice [1] = test: Maximal electroshock (MES) seizure test; type: in vivo; details: for responders at 100 mg/kg / ED50: Mus musculus, ip; for responders at 100 mg/kg / antiseizure protection in MES screening: 100 mg/kg i.p., 0.5 h; for responders at 100 mg/kg: read-out: MES: number of mice protected/number of mice tested (converted); for antiseizure protection in MES screening: four mice; for ED50: mice, pretreatment 0.5 h
Source text: (§1) Identification and profiling of new ASM candidate compounds are still largely based on predictive animal models of seizures/epilepsy, while a range of in silico and in vitro approaches (i.e., molecular modeling or high throughput screening, etc.) are increasingly used in the early stages of ASM discovery.[31] The Epilepsy Therapy Screening Program (ETSP) of the National Institute of Neurological Disorders and Stroke (NIH, Bethesda, MD) has enabled the discovery of several approved ASMs by focusing on the in vivo testing of compounds synthesized by both academic laboratories and industry.[32] The ETSP provides a broad panel of seizure tests (ca. 30 rodent models), but a subset of them is used for the initial screening of new compounds with potential antiseizure activity. The routinely used seizure models include: (i) the MES test, which is an experimental model of tonic–clonic seizures, (ii) the 6 Hz model (32 mA) of focal seizures, and (iii) the scPTZ model of generalized absence or myoclonic seizures.[33],[34] Consequently, in the current studies, all final compounds 21–36 and 45–48 were initially studied in the MES and the 6 Hz (32 mA) seizure models after intraperitoneal (i.p.) administration at a screening dose of 100 mg/kg in mice at a time point of 0.5 h (the screening group consisted of four mice, and the results obtained are summarized in Table S1).
(§2) These parameters were then used to calculate the protective indexes (PIs, PI = TD50/ED50), which describe the therapeutics window of potential drug candidates. The ED50, TD50, and PI values for the tested compounds together with data of their chemical prototypes KA-11 and KJ-5 and reference ASMs are summarized in Table 2.
(§3) The adult male Albino Swiss mice weighed between 22 and 26 g were used in the in vivo studies. They were housed under standardized housing conditions in colony cages and had free access to food as well as tap water. The animals were left to adapt under laboratory conditions for 7 days. All procedures involving animals and their care were performed in accordance with the current European Community and Polish legislation on animal experimentation.
(§4) In the initial screening studies, four mice per group were randomly assigned to each experimental group (each mouse was used only once). To evaluate the ED50 or TD50 values, four groups consisting of eight animals were injected with various doses of tested compounds. The protective indexes (PIs) for the compounds investigated and reference ASMs were calculated by dividing the TD50 value, as determined in the chimney test, by the respective ED50 value, as determined in the MES, scPTZ, or 6 Hz (32 or 44 mA) tests (PI = TD50/ED50). The PIs are a measure of the potential therapeutic window of the tested agent.
(§5) All substances were suspended in Tween 80 (1% aqueous solution) and administered i.p. as a single injection at a dose of 10 mL/kg. On each day of experimentation, fresh solutions were prepared. The detailed in vivo procedures are described elsewhere: the maximal electroshock seizure test (MES),[60] the subcutaneous pentylenetetrazole seizure test (scPTZ),[61] the 6 Hz psychomotor seizure model (32 and 44 mA),[62] and the chimney test.[63] The reference ASMs were purchased from commercial suppliers: VPA (Sigma-Aldrich, St. Louis, MO), LCS, and LEV (UCB Pharma, Braine l’Alleud, Belgium).

mice [2] = test: 6 Hz (32 mA) psychomotor seizure model; type: in vivo; details: Mus musculus, ip; for responders at 100 mg/kg: 100 mg/kg i.p., 0.5 h; for ED50: mice, pretreatment 0.5 h
Source text: as §1, §2, §3, §4, §5

TRPV1 (VR1) (h) = target: T1, TRPV1 (VR1) (h) (Homo sapiens, UniProt Q8NER1); test: TRPV1 antagonist effect functional assay; type: cell-based; details: human recombinant CHO cells; for inhibition at 10 µM: read-out: % inhibition of control agonist response
T1 construct: Eurofins (contract assay)
Procedure: For many years, the TRPV1 channel, permeable to calcium and sodium ions, has been recognized as a promising molecular target for novel analgesics.[19] […] Therefore, bearing in mind the involvement of TRPV1 in pain sensation and potentially in seizure induction, in the next step of the in vitro studies, the TRPV1 antagonist activity was determined for all compounds obtained (Table 6).
Binding/functional studies were carried out commercially in Eurofins Laboratories (Poitiers, France) and Eurofins Panlabs Discovery Services Taiwan, Ltd. (New Taipei City, Taiwan) using testing procedures that were reported previously (for details, see Table S2).
Table S2. Radioligand binding and functional assays. […]
TRPV1 (VR1) (h) (antagonist effect) […]
Assays were performed commercially in Eurofins Laboratories ( Poitiers, France) or Eurofins Panlabs Discovery Services
Taiwan, Ltd. (New Taipei City, Taiwan).

mice [3] = test: Subcutaneous pentylenetetrazole (scPTZ) seizure test; type: in vivo; details: for protection in scPTZ screening / scPTZ: number of mice protected/number of mice tested: 100 mg/kg i.p.; for scPTZ: number of mice protected/number of mice tested: 0.5 h
Source text: as §2, §4, §5

[4] = four mice, read-out: protection in 6 Hz (32 mA) screening
[5] = read-out: 6 Hz (32 mA): number of mice protected/number of mice tested (converted)

T1 sequence (Q8NER1 whole entry): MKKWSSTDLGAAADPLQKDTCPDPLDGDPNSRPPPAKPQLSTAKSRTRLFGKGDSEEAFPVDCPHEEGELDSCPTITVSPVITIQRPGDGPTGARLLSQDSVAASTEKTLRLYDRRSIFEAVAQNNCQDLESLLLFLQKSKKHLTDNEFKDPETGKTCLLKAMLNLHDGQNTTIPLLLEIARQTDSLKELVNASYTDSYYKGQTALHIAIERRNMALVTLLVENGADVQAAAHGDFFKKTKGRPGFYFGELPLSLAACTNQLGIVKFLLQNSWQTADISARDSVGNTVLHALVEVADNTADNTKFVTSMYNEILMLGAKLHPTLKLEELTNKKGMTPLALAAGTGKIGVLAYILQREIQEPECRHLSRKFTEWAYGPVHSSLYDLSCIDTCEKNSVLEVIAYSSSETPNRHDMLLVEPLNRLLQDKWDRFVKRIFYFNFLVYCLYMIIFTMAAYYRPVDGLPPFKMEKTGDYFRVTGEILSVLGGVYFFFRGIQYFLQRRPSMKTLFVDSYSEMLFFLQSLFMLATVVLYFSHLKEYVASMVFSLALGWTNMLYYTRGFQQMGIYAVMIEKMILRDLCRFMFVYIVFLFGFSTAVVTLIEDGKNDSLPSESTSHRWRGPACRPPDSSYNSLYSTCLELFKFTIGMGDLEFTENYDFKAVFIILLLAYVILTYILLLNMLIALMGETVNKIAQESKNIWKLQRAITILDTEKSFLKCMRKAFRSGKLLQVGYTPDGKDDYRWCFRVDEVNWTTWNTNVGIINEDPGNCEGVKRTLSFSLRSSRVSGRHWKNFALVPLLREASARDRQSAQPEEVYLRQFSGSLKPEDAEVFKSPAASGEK

Row | SMILES | responders at 100 mg/kg (mice [1]) | responders at 100 mg/kg (mice [2]; [4]) | responders at 100 mg/kg (mice [2]; [5]) | inhibition at 10 µM (TRPV1 (VR1) (h)) | melting point | antiseizure protection in MES screening (mice [1]) | ED50 (mice [1]) | ED50 (mice [2]) | protection in scPTZ screening (mice [3]) | scPTZ: number of mice protected/number of mice tested (mice [3]) | ED50 (mice [3]; Mus musculus, ip, mice) | Kb (TRPV1 (VR1) (h))
1 | CC(=O)NC(C)C(=O)N1CCN(c2ccccc2)CC1 (centres unmarked) [Compound 21, N-(1-oxo-1-(4-Phenylpiperazin-1-yl)propan-2-yl)acetamide] | 0% | 25% | 25% | 1.6% | 113.6 to 114.9 °C |  |  |  |  |  |  | 
2 | CC(=O)NC(C)C(=O)N1CCN(c2cccc(Cl)c2)CC1 (centres unmarked) [Compound 22, N-(1-(4-(3-Chlorophenyl)piperazin-1-yl)-1-oxopropan-2-yl)acetamide] | 100% | 75% | 75% | 12.5% | 125.8 to 126.5 °C | 100% | 122 mg/kg | 77.3 mg/kg | 25% | 1/4 |  | 
3 | CC(=O)NC(C)C(=O)N1CCN(c2ccc(Cl)cc2)CC1 (centres unmarked) [Compound 23, N-(1-(4-(4-Chlorophenyl)piperazin-1-yl)-1-oxopropan-2-yl)acetamide] | 0% |  | 0% | -4.6% | 144.9 to 145.8 °C |  |  |  |  |  |  | 
4 | CC(=O)NC(C)C(=O)N1CCN(c2ccc(Cl)c(Cl)c2)CC1 (centres unmarked) [Compound 24, N-(1-(4-(3,4-Dichlorophenyl)piperazin-1-yl)-1-oxopropan-2-yl)acetamide] | 75% | 100% | 100% | 51.5% | 152.1 to 152.9 °C | 75% | > 150 mg/kg | 41.4 mg/kg | 75% | 3/4 | 116 mg/kg | 4.5 µM
5 | CC(=O)NC(C)C(=O)N1CCN(c2cc(Cl)cc(Cl)c2)CC1 (centres unmarked) [Compound 25, N-(1-(4-(3,5-Dichlorophenyl)piperazin-1-yl)-1-oxopropan-2-yl)acetamide] | 75% | 75% | 75% | 8.1% | 164.6 to 165.4 °C | 75% | 52.9 mg/kg | 56.1 mg/kg | 50% | 2/4 |  | 
6 | CC(=O)NC(C)C(=O)N1CCN(c2ccc(C(F)(F)F)cc2)CC1 (centres unmarked) [Compound 27, N-(1-oxo-1-(4-(4-(Trifluoromethyl)phenyl)piperazin-1-yl)propan-2-yl)acetamide] | 25% |  | 0% | -15.9% | 132.8 to 133.3 °C | 25% |  |  |  |  |  | 
7 | CC(=O)NC(C)C(=O)N1CCN(c2cccc(Oc3ccccc3)c2)CC1 (centres unmarked) [Compound 29, N-(1-oxo-1-(4-(3-Phenoxyphenyl)piperazin-1-yl)propan-2-yl)acetamide] | 100% | 75% | 75% | 104% | 133.6 to 134.3 °C |  | 39.9 mg/kg | 41.2 mg/kg | no activity | 0/4 |  | 4.2 µM
8 | CC(NC(=O)c1ccccc1)C(=O)N1CCN(c2cccc(Cl)c2)CC1 (centres unmarked) [Compound 31, N-(1-(4-(3-Chlorophenyl)piperazin-1-yl)-1-oxopropan-2-yl)benzamide] | 0% |  | 0% | 4.6% | 177.8 to 178.5 °C |  |  |  |  |  |  | 
9 | CC(NC(=O)c1ccccc1)C(=O)N1CCN(c2cccc(C(F)(F)F)c2)CC1 (centres unmarked) [Compound 32, N-(1-oxo-1-(4-(3-(Trifluoromethyl)phenyl)piperazin-1-yl)propan-2-yl)benzamide] | 0% | 25% | 25% | -16.1% | 165.8 to 166.5 °C |  |  |  |  |  |  | 
10 | CCNC(=O)NC(C)C(=O)N1CCN(c2cccc(Cl)c2)CC1 (centres unmarked) [Compound 33, 1-(1-(4-(3-Chlorophenyl)piperazin-1-yl)-1-oxopropan-2-yl)-3-ethylurea] | 0% |  | 50% | -11.7% | 145.1 to 146.2 °C |  |  |  |  |  |  | 
11 | CCNC(=O)NC(C)C(=O)N1CCN(c2cccc(C(F)(F)F)c2)CC1 (centres unmarked) [Compound 34, 1-Ethyl-3-(1-oxo-1-(4-(3-(trifluoromethyl)phenyl)piperazin-1-yl)propan-2-yl)urea] | 0% |  | 50% | -5.3% | 136.4 to 137.3 °C |  |  |  |  |  |  | 
12 | CC(C)NC(=O)NC(C)C(=O)N1CCN(c2cccc(Cl)c2)CC1 (centres unmarked) [Compound 35, 1-(1-(4-(3-Chlorophenyl)piperazin-1-yl)-1-oxopropan-2-yl)-3-isopropylurea] | 0% |  | 50% | -11.9% | 147.4 to 148.2 °C |  |  |  |  |  |  | 
13 | CC(C)NC(=O)NC(C)C(=O)N1CCN(c2cccc(C(F)(F)F)c2)CC1 (centres unmarked) [Compound 36, 1-Isopropyl-3-(1-oxo-1-(4-(3-(trifluoromethyl)phenyl)piperazin-1-yl)propan-2-yl)urea] | 25% | 25% | 25% | -13.6% | 144.5 to 145.4 °C | 25% |  |  |  |  |  | 
14 | CC(=O)NC(C)C(=O)NC1CCN(c2ccccc2)C1 (centres unmarked) [Compound 45, 2-Acetamido-N-(1-phenylpyrrolidin-3-yl)propanamide] | 0% |  | 0% | -11.6% | 176.6 to 177.8 °C |  |  |  |  |  |  | 
15 | CC(=O)NC(C)C(=O)NC1CCN(c2cccc(C(F)(F)F)c2)C1 (centres unmarked) [Compound 46, 2-Acetamido-N-(1-(3-(trifluoromethyl)phenyl)pyrrolidin-3-yl)propanamide] | 0% |  | 0% | -10% | 162.8 to 163.7 °C |  |  |  |  |  |  | 
16 | CC(=O)NC(C)C(=O)NC1CCN(c2cccc(OC(F)(F)F)c2)C1 (centres unmarked) [Compound 47, 2-Acetamido-N-(1-(3-(trifluoromethoxy)phenyl)pyrrolidin-3-yl)propanamide] | 0% | 50% | 50% | -8.3% | 164.8 to 165.9 °C |  |  |  |  |  |  | 
17 | CC(=O)NC(C)C(=O)NC1CCN(c2cccc(SC(F)(F)F)c2)C1 (centres unmarked) [Compound 48, 2-Acetamido-N-(1-(3-((trifluoromethyl)thio)phenyl)pyrrolidin-3-yl)propanamide] | 0% | 50% | 50% | 4.2% | 162.2 to 163.3 °C |  |  |  |  |  |  | 
